In patent US11793787B2, “Methods and compositions for enhancing anti-tumor immunity by targeting steroidogenesis” (The Broad Institute, Inc., priority 2019, dated 2023):
“And” between values parts separate entries of the source, which are not always exact repeats. Equal entries are not always repeated. “Also recorded” adds a separate entry of the source.

Experiments:
[1] = tested on: MC38-Ova tumor explants; assay: MC38-Ova tumor explants cultured with Metyrapone, corticosterone ELISA; assay type: cell-based, mouse; conditions: 24 hrs, Metyrapone 25 or 50 ng/ml
Description: (§1) In vivo and in vitro modulation of glucocorticoid synthesis. MC38-Ova^dim was implanted in wild type C57BL/6 mice and either Metyrapone (50 mg/kg; Fisher Scientific), Corticosterone (2.5 mg/kg) or vehicle control PBS (Gibco) was administered intra-tumorally on Day 5, 6, 7 and 9 post-tumor implantation. In some experiments, MC38-Ova^dim tumor explants or sorted lin^−CD45^+CD24^− cells were cultured in the presence or absence of Metyrapone (25 or 50 ng/ml) for 24 hrs. Supernatants were harvested and corticosterone measured by ELISA (Arbor Assays).

[2] = tested on: CD8+ TILs; assay: Flow cytometry of CD8+ TILs from Metyrapone-treated tumor-bearing mice; assay type: in vivo, mouse; conditions: intra-tumoral Metyrapone, early stage of tumor progression
Description: as §1, with “Isolation of TILs. TILs were isolated by dissociating tumor tissue in the presence of collagenase D (2.5 mg/ml) for 20 minutes prior to centrifugation on a discontinuous Percoll gradient (GE Healthcare). Isolated cells were then used in various assays. Flow cytometry. […] Antigen specific […] […] In vivo” for “In vivo”, “or sorted lin^-CD45^+CD24^- cells were” for “or sorted lin^−CD45^+CD24^− cells were”

[3] = tested on: MC38-Ova colon carcinoma; assay: Intra-tumoral Metyrapone in MC38-Ova tumor-bearing mice, tumor growth; assay type: in vivo, mouse; conditions: 50 mg/kg, Days 5, 6, 7 and 9
Source text: Tumor cell lines used. MC38-Ova^dim was generously provided by Mark Smyth. B16F10 was purchased from ATCC. MC38 was generously provided by Carla Rothlin. MC38-Ova^dim-GFP was generated in Applicants lab as follows, HEK293T cells were transfected with pLenti PGK GFP Puro plasmid. The resulting Lentivirus was then used to infect Mc38Ova^dim cell line to generate a GFP expressing cell line. MC38-Ova^dim (0.5×10^6) or B16F10 (0.25×10^6) and MC38-Ova^dim-GFP (0.5×10^6) cells were implanted subcutaneously into the right flank of mice.
Tumor experiments. Tumor size was measured in two dimensions by caliper and is expressed as the product of two perpendicular diameters. In some experiments, mice were treated with anti-PD-1 (RMP1-14) ([…]) antibodies or control immunoglobulin (Rat IgG2a) i.p. on days 5, 8 and 11 post-tumor implantation. Mice were then monitored for tumor growth. […] Antibodies were administered bi-weekly for a total of 5 treatments (n=9-10).
as §1, with “In some experiments, MC38-Ova^dim tumor explants or sorted lin^−CD45^+CD24^− cells were cultured in the presence or absence of Metyrapone (25 or 50 ng/ml) for 24 hrs.” left out

[4] = tested on: Lin-CD45+CD24- monocyte/macrophages from MC38-Ova tumors; assay: Tumor-associated monocyte/macrophages cultured with Metyrapone, corticosterone ELISA; assay type: cell-based, mouse; conditions: 24 hrs culture ex vivo
Description: as §1

[5] = tested on: MC38-Ova dim colon carcinoma; assay: Intra-tumoral corticosterone in LysMCre+ Cyp11a1fl/fl mice bearing MC38-Ova dim, tumor progression; assay type: in vivo, mouse; conditions: intra-tumoral corticosterone 2.5 mg/kg, Days 5, 6, 7 and 9
Description: Tumor experiments. Tumor size was measured in two dimensions by caliper and is expressed as the product of two perpendicular diameters. […] Mice were then monitored for tumor growth. […] In vivo and in vitro modulation of glucocorticoid synthesis. MC38-Ova^dim was implanted in wild type C57BL/6 mice and either Metyrapone (50 mg/kg; Fisher Scientific), Corticosterone (2.5 mg/kg) or vehicle control PBS (Gibco) was administered intra-tumorally on Day 5, 6, 7 and 9 post-tumor implantation.

[6] = tested on: CD8+ T cells; assay: RNA-Seq of naive CD8+ T cells cultured with Dex (GC), IL-27 or GC+IL-27 (Tables 1, 2A, 2B, 3, 5-8); assay type: cell-based, mouse
[7] = tested on: CD8+ T cells; assay: Quantitative RT-PCR of Prdm1, Nfil3 and Tcf7 in GC, IL-27 or GC+IL-27 treated CD8+ T cells; assay type: cell-based, mouse; conditions: qPCR
Description: Cell culture and treatment with glucocorticoid.
Quantitative PCR. Total RNA was extracted using RNeasy columns (Qiagen) or PicoPure™ RNA Isolation Kit (Thermo Fischer). Reverse transcription of mRNA was performed in a thermal cycler (Bio-Rad) using iScript cDNA Synthesis Kit (Bio-Rad) or SuperScript™ VILO™ cDNA Synthesis Kit (Thermo Fischer). qPCR was performed in the Vii7 Real-Time PCR system (Applied Biosystems) using the primers for Taqman gene expression (Applied Biosystems). Data were normalized to the expression of Actb.

[8] = treated CD8+ T cells, three values per condition, listed as Dex
[9] = treated CD8+ T cells, three values per condition

**Q.** Which results are given for `CC(C)(C(=O)c1cccnc1)c1cccnc1` [Metyrapone]?
**A.** level of corticosterone in tumor explant supernatants [1]: reduced and less; functional properties of CD8+ TILs compared with loss of GR in CD8+ T cells [2]: resembled that of CD8^+ TILs from E8i-Cre^+ Nr3c1^fl/fl mice and LysM-Cre^+ Cyp11a1^fl/fl mice; functional properties of CD8+ TILs compared with loss of GR in CD8+ T cells ([2]; listed as metyrapone): phenocopies CD8 GR cKO; tumor growth [3]: dramatic tumor growth inhibition; corticosterone production by tumor-associated monocyte/macrophages [4]: dramatically reduced; also recorded: significantly inhibited

**Q.** Which “control of tumor progression in LysMCre+ Cyp11a1fl/fl mice” value [5] does the source give for `C[C@]12C[C@H](O)[C@H]3[C@@H](CCC4=CC(=O)CC[C@@]43C)[C@@H]1CC[C@@H]2C(=O)CO` [corticosterone] here?
**A.** The value was “abrogated”.

**Q.** Which “number of GC-induced genes overlapping with the T cell dysfunction signature” value ([6]; GC versus vehicle control, Table 8) does the source give for `C[C@@H]1C[C@H]2[C@@H]3CCC4=CC(=O)C=C[C@]4(C)[C@@]3(F)[C@@H](O)C[C@]2(C)[C@@]1(O)C(=O)CO` [dexamethasone] here?
**A.** Its value is 463.

**Q.** And the 1124 expression levels [6, 8]?
**A.** Its 1124 expression levels is 156.6 and 224.35 and 191.

**Q.** And the CD28 expression levels [6, 8]?
**A.** Its CD28 expression levels is 31.98 and 33.89 and 35.83.

**Q.** And the Lilrb4 expression levels [6, 8]?
**A.** The Lilrb4 expression levels was 179.28 and 174.41 and 160.09.

**Q.** What about the Nupr1 expression levels [6, 8] of the same molecule?
**A.** The Nupr1 expression levels was 11.81 and 14.26 and 21.7.

**Q.** What about the Tcf7 expression levels [6, 8] of the same molecule?
**A.** Its Tcf7 expression levels is 9.54 and 8.42 and 8.72.

**Q.** What about the Tgfb3 expression levels [6, 8] of the same molecule?
**A.** Its Tgfb3 expression levels is 8.53 and 5.51 and 5.9.

B1: IL-27: heterodimeric cytokine of the IL-12 family composed of EBI3 and IL-27p28 (protein, UniProt Q14213 21-229; Q8NEV9 29-243, looked up)
Interleukin-27 subunit beta: RKGPPAALTLPRVQCRASRYPIAVDCSWTLPPAPNSTSPVSFIATYRLGMAARGHSWPCLQQTPTSTSCTITDVQLFSMAPYVLNVTAVHPWGSSSSFVPFITEHIIKPDPPEGVRLSPLAERQLQVQWEPPGSWPFPEIFSLKYWIRYKRQGAARFHRVGPIEATSFILRAVRPRARYYVQVAAQDLTDYGELSDWSLPATATMSLGK
Interleukin-27 subunit alpha: FPRPPGRPQLSLQELRREFTVSLHLARKLLSEVRGQAHRFAESHLPGVNLYLLPLGEQLPDVSLTFQAWRRLSDPERLCFISTTLQPFHALLGGLGTQGRWTNMERMQLWAMRLDLRDLQRHLRFQVLAAGFNLPEEEEEEEEEEEEERKGLLPGALGSALQGPAQVSWPQLLSTYRLLHSLELVLSRAVRELLLLSKAGHSVWPLGFPTLSPQP
**Q.** For B1, which CD28 expression levels [6, 9] is on record?
**A.** The CD28 expression levels was 48.93 and 37.2 and 39.84.

**Q.** And the Lilrb4 expression levels [6, 9]?
**A.** Its Lilrb4 expression levels is 73.62 and 94.25 and 105.87.

**Q.** And the Nupr1 expression levels [6, 9]?
**A.** The Nupr1 expression levels was 11.93 and 21.86 and 19.79.

**Q.** What about the Tcf7 expression levels [6, 9] of the same molecule?
**A.** Its Tcf7 expression levels is 5.37 and 7.39 and 5.57.

**Q.** What about the Tcf7 expression [7] of the same molecule?
**A.** The Tcf7 expression was “dramatically reduced”.
